From PMC3847553, “Kinetic properties of “dual” orexin receptor antagonists at OX1R and OX2R orexin receptors” (Frontiers in Neuroscience, 2013)
Where two headings read alike, the source gives them in different places.

Experiments:
human OX1R = target: T1, human OX1R (Homo sapiens, UniProt O43613); assay: [3H]-BBAC competition binding over time, CHO-hOX1 membranes
T1 construct: expressed in transfected cells; host or cells: CHO; cells from GNF, San Diego
T1 sequence (O43613 1-425): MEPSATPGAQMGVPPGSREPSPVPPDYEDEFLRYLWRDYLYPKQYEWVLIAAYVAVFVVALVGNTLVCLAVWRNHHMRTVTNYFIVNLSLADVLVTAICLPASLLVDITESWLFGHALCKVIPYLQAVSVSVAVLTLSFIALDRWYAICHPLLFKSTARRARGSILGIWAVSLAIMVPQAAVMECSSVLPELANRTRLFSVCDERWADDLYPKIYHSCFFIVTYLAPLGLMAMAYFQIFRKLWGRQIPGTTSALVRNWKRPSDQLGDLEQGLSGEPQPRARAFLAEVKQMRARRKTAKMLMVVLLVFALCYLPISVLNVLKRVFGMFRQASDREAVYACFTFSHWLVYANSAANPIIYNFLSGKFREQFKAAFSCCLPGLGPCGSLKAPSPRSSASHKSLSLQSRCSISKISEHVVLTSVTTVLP
From the text: (§1) Chinese Hamster Ovary (CHO) cells stably transfected with the cDNA encoding the human OX1R (CHO-hOX1) or OX2R (CHO-hOX2) were used (kindly provided by T. Cremer and Dr. S. Geisse, NIBR Basel, Switzerland). For measurements of calcium accumulation using FLIPR® (Fluorescent Imaging Plate Reader) assay, CHO or Human Embryonic Kidney (HEK) cells stably expressing mouse, rat or human OX1R or OX2R (kindly provided by Dr. A. Chen, GNF, San Diego, CA, USA) were used. […] Cells were maintained in a humidified incubator at 37°C in 5% CO2. For crude cell membrane preparations, cells were washed and harvested in 10 mM HEPES (pH 7.5), and centrifuged at 4°C for 5 min at 2500 g. The cell pellet was either stored at −80°C or used directly.
(§2) Cell membranes were resuspended in binding assay buffer at 4°C (10 mM HEPES, pH 7.5, 0.5% (w/v) bovine serum albumin (BSA), 5 mM MgCl2, 1 mM CaCl2, and 0.05% Tween 20) and homogenized with a Polytron homogenizer at 50 Hz for 20 s. […] Radioactivity was quantified using a TopCount™ microplate counter (Perkin Elmer).
(§3) All data was analyzed using GraphPad Prism 4.0 (GraphPad, San Diego, USA). The saturation data was fit to a non-linear regression model for saturation binding with consideration for one site binding. […] Competition binding data was fit to a non-linear regression model for competition binding with consideration for variable one site binding with a non-fixed Hill slope.

human OX2R [1] = target: T2, human OX2R (Homo sapiens, UniProt O43614); assay: FLIPR orexin A-stimulated calcium accumulation, human OX2R; type: cell-based; settings: CHO cells
T2 construct: expressed in transfected cells; host or cells: CHO; cells from GNF, San Diego
T2 sequence (O43614 1-444): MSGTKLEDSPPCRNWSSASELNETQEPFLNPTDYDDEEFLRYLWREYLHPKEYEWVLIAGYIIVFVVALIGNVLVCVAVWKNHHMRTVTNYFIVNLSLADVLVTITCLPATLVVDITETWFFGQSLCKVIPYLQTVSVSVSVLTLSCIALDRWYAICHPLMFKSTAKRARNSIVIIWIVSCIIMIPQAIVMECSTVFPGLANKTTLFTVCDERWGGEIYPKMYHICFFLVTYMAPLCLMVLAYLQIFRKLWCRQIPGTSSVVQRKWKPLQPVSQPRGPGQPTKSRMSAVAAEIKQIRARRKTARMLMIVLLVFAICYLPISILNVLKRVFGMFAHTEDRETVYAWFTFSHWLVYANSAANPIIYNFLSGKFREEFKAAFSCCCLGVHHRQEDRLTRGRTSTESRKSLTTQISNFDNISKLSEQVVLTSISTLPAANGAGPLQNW
From the text: as §1
Cells expressing either human, rat or mouse OX1R or OX2R were seeded at 8,000 cells/well in black 384 well clear bottom plates and incubated overnight at 37°C. The following day, medium was discarded and cells loaded with 50 μ l of 1 mM Fluo-4 AM (Invitrogen F14202) in dimethyl sulfoxide in working buffer (Hanks' balanced salt solution, 10 mM HEPES) and incubated for 60 min at 37°C. The loading buffer was removed and cells were washed with 100 μ l working buffer containing […], 0.1% BSA, and 2.5 mM Probenecid (pH 7.4) to remove the excess Fluo-4 AM. […] The assay plate was then transferred to the Molecular Devices-FLIPR384. The baseline calcium signal was recorded for 10 s, then the antagonist of interest was injected (10 μl at 3 times the final concentration) and the calcium signal recorded every second for 1 min, then every 2 s 40 times.

human OX2R [2] = target: T2, human OX2R; assay: [3H]-BBAC competition binding over time, CHO-hOX2 membranes; settings: competition for 4.6 nM [3H]-BBAC, 15 min to 4 h, human OX2R
From the text: as §1, §2, §3

[3] = competition for 4.6 nM [3H]-BBAC, 15 min to 4 h, human OX1R

Compound | effect of incubation time on competition curves (human OX1R) | pKi (human OX2R [1]; antagonist incubation 30 min) | Ki (human OX2R [1]; antagonist incubation 1 h) [nM] | Ki (human OX2R [1]; antagonist incubation 2 h) [nM] | Ki (human OX2R [1]; antagonist incubation 4 h) [nM] | effect of incubation time on competition curves (human OX2R [2]) | effect of incubation time on competition curves (human OX1R; [3]) | Ki (human OX2R [1]; antagonist incubation 30 min) [nM]
CNC(=O)[C@@H](c1ccccc1)N1CCc2cc(OC)c(OC)cc2[C@@H]1CCc1ccc(C(F)(F)F)cc1 [Almorexant] | shifted to the left with time moderately | 8.33 −log M | 1.51 | 1.58 | 0.813 | substantially |  | 
Cc1ccc(-c2ncccn2)c(C(=O)N2C[C@H](COc3ccc(F)cn3)CC[C@H]2C)c1 [Filorexant] |  |  | 0.224 | 0.186 | 0.17 | shifted to the left over time, even up to 4 h | rather insensitive to incubation time | 0.355
COc1ccnc(N2CCC3(CCCN(Cc4c[nH]c5ccccc45)C3=O)CC2)n1 [IPSU, 2-((1H-Indol-3-yl)methyl)-9-(4-methoxypyrimidin-2-yl)-2,9-diazaspiro[5.5]undecan-1-one] |  |  | 10.7 | 15.1 | 20.9 | do not show time-dependency | do not show time-dependency | 10
Cc1nc(C(=O)N2CCCC[C@H]2CNC(=O)c2cccc3occc23)c(-c2ccc(F)cc2)s1 [SB-649868] |  |  | 0.372 | 0.17 | 0.151 | binding appeared to be rather stable | shifted to the left over time up to 4 h | 0.302
Cc1ccc(-n2nccn2)c(C(=O)N2CCN(c3nc4cc(Cl)ccc4o3)CC[C@H]2C)c1 [Suvorexant] | shifted to the left over time |  |  |  |  | shifted to the left over time |  | 
